The record followed here is PubChem BioAssay AID977622 (Broad Institute, 2014).

The structures appear in SMILES notation. Results filed as inconclusive are left out. The source made the active and inactive calls.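 How the source made its calls: active means Green signal of the normal strain falls at least twice as much as red signal of the resistant mutant, with overall culture growth loss under a set limit; inconclusive means no clear call, values can overlap the other calls; inactive means the rest.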 A value given as a limit tells only on which side of the number the result lay.

Assay [1] relates to E. coli WT ribosome GFP fluorescence, mixed culture, 24 h. Kind of assay: wild-type E. coli growth inhibition versus h38 humanized strain – h38 mutant RFP, wild-type GFP, cherry-pick, dose response (AID 977622).
For assay [2], the system named is E. coli h38 humanized mutant ribosome RFP fluorescence, mixed culture, 24 h. Described as above. The conditions noted are these: measured here: h38 humanized mutant RFP strain.
The mark [3] stands for this setting: E. coli mixed culture, 24 h, measured here: total growth OD600.

On to `O=S1(=O)N[C@H](Cc2ccccc2)COc2cccc(N3CCC[C@H]3CO)c21`, for which the values for the AC50 in assay [1] and in assay [2] were > 100 µM (inactive) and > 100 µM, respectively.

With `CCc1cc2c(nc1CC)CCCN2Cc1ccc(Br)cc1`, the AC50 is > 100 µM (inactive) in assay [1] and > 100 µM in assay [2].

On to `COC(=O)c1c(-c2ccc(OC)cc2)sc2cc(OC)c(OC)cc12`, for which the AC50 is > 100 µM (inactive) in assay [1], 45.8 µM in assay [1] (setting [3]) and > 100 µM in assay [2].

`COc1ccc(OC)c(C(=O)COC(=O)c2ccc([N+](=O)[O-])o2)c1`: the AC50 was > 100 µM (inactive) in assay [1], > 100 µM in assay [1] (setting [3]) and > 100 µM in assay [2].

With `Cc1nc([N+](=O)[O-])c(Br)n1CC(=O)c1ccc(F)cc1`, the AC50 is > 100 µM (inactive) in assay [1] and 4.58 µM in assay [2].

For `O=C1OC[C@@H]2CCCN2C(=O)[C@@H](CC(=O)N(CCO)Cc2ccccc2)C/C=C\C[C@H]1Cc1ccc(F)cc1`, the AC50 in assay [1] (setting [3]) and in assay [2] was > 100 µM throughout.

As to `COc1ccc(NC(=O)Nc2cccc3c2O[C@@H](CN(C)S(=O)(=O)c2ccc(Cl)cc2)[C@H](C)CN([C@H](C)CO)C3=O)cc1`, the results for the AC50 in assay [1] and in assay [2] were > 100 µM (inactive) and > 100 µM, respectively.

Take `C=C1c2cc3c(cc2NC(=S)N1Cc1ccccc1)OCO3`: the AC50 in assay [1] (setting [3]) and in assay [2] was > 100 µM throughout.

Take `CCn1cc(Br)c(C(=O)Nc2ccc(C(=O)OC(C)C)cc2)n1`: the AC50 in assay [1] was > 100 µM (inactive); in assay [2], > 100 µM.

For `O=C(Nc1cccc(Cl)c1)c1ccc(S(=O)(=O)NCC2CCCO2)cc1` (stereo not drawn), the AC50 is > 100 µM (inactive) in assay [1], 52.5 µM in assay [1] (setting [3]) and 43.4 µM in assay [2].

On to `CN(C)c1ccc(-c2nnn(Cc3ccccc3Br)n2)cc1`, for which the AC50 in assay [1] was > 100 µM (inactive); in assay [2], > 100 µM.

Turning to `COc1ccc(OC)c(S(=O)(=O)Nc2cccc3ccc(O)cc23)c1`, the AC50 in assay [1] is > 100 µM (inactive); in assay [1] (setting [3]) it was > 100 µM; in assay [2], > 100 µM.

Regarding `Nc1c(Cl)cc(C2=NCCn3nc4ccccc4c32)cc1Cl`, the AC50 in assay [1] was > 100 µM (inactive); in assay [1] (setting [3]), 41.6 µM; in assay [2] it was 50.5 µM.

Regarding `C=CCn1c(C)cc(C(=O)CSc2nnc(C3CC3)n2C2CC2)c1C`, the AC50 in assay [1] (setting [3]) and in assay [2] was > 100 µM each time.
